Test results from US9061060B2, “Deuterated benzylbenzene derivatives and methods of use” (Theracos Inc., priority 2008, dated 2015).

What was measured:
CYP1A2 = target: T1, CYP1A2 (Homo sapiens, UniProt P05177); test: P450-Glo CYP screening kit, CYP1A2 inhibition; assay type: in vitro ADME; conditions: luminescence, read-out: IC50 1A2
T1 construct: purchased Promega
T1 sequence (P05177 1-516): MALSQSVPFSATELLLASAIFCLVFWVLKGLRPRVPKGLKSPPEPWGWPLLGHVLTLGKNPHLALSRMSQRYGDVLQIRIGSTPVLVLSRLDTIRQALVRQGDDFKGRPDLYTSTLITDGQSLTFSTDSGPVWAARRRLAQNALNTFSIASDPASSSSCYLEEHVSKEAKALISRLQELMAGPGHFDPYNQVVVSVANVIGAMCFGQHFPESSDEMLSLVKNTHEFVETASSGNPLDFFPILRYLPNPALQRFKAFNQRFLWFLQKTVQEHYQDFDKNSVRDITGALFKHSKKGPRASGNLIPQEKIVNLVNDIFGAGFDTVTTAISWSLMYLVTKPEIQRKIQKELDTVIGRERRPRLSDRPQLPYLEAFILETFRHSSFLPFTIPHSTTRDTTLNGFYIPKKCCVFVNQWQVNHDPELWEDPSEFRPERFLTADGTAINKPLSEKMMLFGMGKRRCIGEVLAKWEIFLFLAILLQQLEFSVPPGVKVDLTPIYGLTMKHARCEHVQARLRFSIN
Description: (§1) P450-Glo™ CYP Screening Kits for CYP1A2, CYP3A4 and CYP2C19 were purchased from Promega. […] Luminescence was quantified using a Victor 3 spectrophotometer (PerkinElmer).

CYP2C19 = target: T2, CYP2C19 (Homo sapiens, UniProt P33261); test: P450-Glo CYP screening kit, CYP2C19 inhibition; assay type: in vitro ADME; conditions: luminescence, read-out: IC50 2C19
T2 construct: purchased Promega
Description: as §1

SD rats = test: Urinary glucose excretion in SD rats; assay type: in vivo; conditions: 1 mg/kg oral
Description: Each test compound was dissolved in 30% PEG400 and administered orally to overnight-fasted SD rats by gavage at the dose level of 1 mg/kg. Control rats were given 30% PEG400 only. One hour post dosing, glucose solution (2 g/kg, 10 mL/kg) was administered by oral gavage. Urine was collected within metabolic cages from 0 to 4 hours, and 4 to 24 hours post-dosing for urine volume and glucose measurement. Food was removed 16 hours before dosing and then provided 4 hours after dosing. Water was supplied ad libitum. The concentration of urinary glucose was determined at 4 hours and 24 hours post-dose using a biochemistry analyzer. Results were recorded for the periods 0-4 hours, 4-24 hours and 0-24 hours, and expressed as a percentage of the urinary glucose excretion (UGE) seen with reference compound A, which was run as a positive control in all experiments.

beagle dogs = test: Urinary glucose excretion in beagle dogs; assay type: in vivo; conditions: separate experiment (Table 4A)
Description: Each test compound was dissolved in 10% PEG400 and administered orally to overnight-fasted beagle dogs by gavage at the dose level of 0.03 mg/kg. Control dogs were given 10% PEG400 only. One hour post dosing, glucose solution (2 g/kg, 5 mL/kg) was administered by oral gavage. Urine was collected within metabolic cages from 0 to 8 hours, and 8 to 24 hours post-dosing for urine volume and glucose measurement. Food was removed 16 hours before dosing and then provided 3 hours after dosing. Water was supplied ad libitum. The concentration of urinary glucose was determined at 8 hours and 24 hours post-dose using a biochemistry analyzer.

[1] = Pharmacokinetic parameters in SD rats; assay type: in vivo, Sprague-Dawley rats; conditions: single oral 3 mg/kg in 30% PEG400, plasma
Description: The pharmacokinetic study of each test compound was conducted in 4 Sprague-Dawley rats following a single oral administration of 3 mg/kg of the compound. The dose was prepared by dissolving test article in appropriate volume of 30% PEG400. The plasma samples were collected from the orbital plexus at 0.083, 0.25, 0.50, 1.0, 2.0, 4.0, 6.0, 8.0, 12 and 24 hours post dose, and the plasma concentrations were determined by a developed LC-MS/MS method.

T2 sequence (P33261 whole entry): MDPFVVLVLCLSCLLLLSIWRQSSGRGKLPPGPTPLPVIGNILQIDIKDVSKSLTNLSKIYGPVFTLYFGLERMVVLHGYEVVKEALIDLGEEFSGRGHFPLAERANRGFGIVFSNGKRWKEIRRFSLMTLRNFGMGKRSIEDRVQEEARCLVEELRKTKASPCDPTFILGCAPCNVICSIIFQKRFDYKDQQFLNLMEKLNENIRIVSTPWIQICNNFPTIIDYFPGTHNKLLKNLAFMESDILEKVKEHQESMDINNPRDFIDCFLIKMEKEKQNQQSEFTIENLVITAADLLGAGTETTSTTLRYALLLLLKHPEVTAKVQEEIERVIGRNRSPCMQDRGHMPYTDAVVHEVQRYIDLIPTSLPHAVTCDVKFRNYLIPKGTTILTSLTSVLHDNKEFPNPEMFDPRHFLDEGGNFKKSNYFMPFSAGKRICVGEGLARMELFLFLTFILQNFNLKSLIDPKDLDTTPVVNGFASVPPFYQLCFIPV

Row | SMILES | IC50 (CYP1A2) [µM] | IC50 (CYP2C19) [µM] | Urinary Glucose Excretion in Rats, 0-4 h, % relative to Ref A (SD rats; 0-4 h) [%] | Urinary Glucose Excretion in Rats, 0-24 h, % relative to Ref A (SD rats) [%] | Urinary Glucose Excretion in Rats, 4-24 h, % relative to Ref A (SD rats; 4-24 h) [%] | Urinary Glucose Excretion in Rats, 0-4 h (mean ± SD) (SD rats; glucose 2 g/kg 1 h post dose, 0-4 h) [mg] | Urinary Glucose Excretion in Rats, 0-24 h (mean ± SD) (SD rats; glucose 2 g/kg 1 h post dose) [mg] | Urinary Glucose Excretion in Rats, 4-24 h (mean ± SD) (SD rats; glucose 2 g/kg 1 h post dose, 4-24 h) [mg] | Urinary Glucose Excretion in Dogs, 0-8 h (mean ± SD) (beagle dogs; 0-8 h) [mg] | Urinary Glucose Excretion in Dogs, 0-24 h (mean ± SD) (beagle dogs) [mg] | Urinary Glucose Excretion in Dogs, 8-24 h (mean ± SD) (beagle dogs) [mg] | CL/F ([1]; Sprague-Dawley, rat) [mL/min/kg] | AUC(0-t) ([1]; Sprague-Dawley, rat, read-out: AUC0-t (mean ± SD)) [ng·h/mL] | Cmax (mean ± SD) [1] [ng/mL] | t1/2 (mean ± SD) [1] [h] | tmax (mean ± SD) [1] [h]
1 | COc1ccc(Cc2cc([C@@H]3O[C@H](CO)[C@@H](O)[C@H](O)[C@H]3O)ccc2Cl)cc1 [Ref B, (2S,3R,4R,5S,6R)-2-(4-chloro-3-(4-methoxybenzyl)phenyl)-6-(hydroxymethyl)tetrahydro-2H-pyran-3,4,5-triol, reference compound] | > 1000 | 195 | 122 | 78 | 74 | 233 ± 35 | 1889 ± 361 | 1657 ± 354 | 3322 ± 464 | 16726 ± 1507 | 13404 ± 1888 | 9.47 | 5240 ± 715 | 1638 ± 326 | 3.55 ± 1.80 | 0.56 ± 0.31
2 | [2H]C([2H])([2H])Oc1ccc(C([2H])([2H])c2cc([C@@H]3O[C@H](CO)[C@@H](O)[C@H](O)[C@H]3O)ccc2Cl)cc1 [compound 19, (2S,3R,4R,5S,6R)-2-(4-chloro-3-((4-(methoxy-d3)phenyl)methyl-d2)phenyl)-6-(hydroxymethyl)tetrahydro-2H-pyran-3,4,5-triol] | > 1000 | 355 | – | 83 | – | – | 2096 ± 332 | – | – | 15928 ± 321 | 12516 ± 485 | – | – | – | – | –
